The values below are quoted from earlier work in patent publication US10376520B2, “Methods for the treatment of cardiovascular disorders” (Galapagos NV, priority 2015, dated 2019).

Where two headings read alike, the source gives them in different places.

The subject of one series is patients. The settings on record: first 3 months of exposure in the controlled clinical trials, cited from earlier work.
For the next series, the system named is RA patient. The conditions noted are these: 10 mg bid for 6 weeks in RA patient; cited from earlier work.

For the compound `C[C@@H]1CCN(C(=O)CC#N)C[C@@H]1N(C)c1ncnc2[nH]ccc12` [Tofacitinib], the figures for the “mean [HDL] increased by” value in the series on patients (5 mg twice daily arm) and in the series with patients (10 mg twice daily arm) were 10% and 12%, respectively. In addition, the “mean [LDL] increased by” value is given as 15% with patients (5 mg twice daily arm) and 19% with patients (10 mg twice daily arm). For the same compound, the “mean [LDL]/[HDL] ratios” value in the series on patients is “essentially unchanged”. The “atherogenic index before and after treatment (unchanged)” value in the series with RA patient was “about 3.5”.
